Data reported in USRE43135E1, “Method of improving dough and bread quality” (Danisco A/S, priority 2001, dated 2012).

Tests used:
[1] = Model dough, free fatty acid in dough (cowpea LAH); format: biochemical, wheat
Method: (§1) 10 g of flour and 0.020 g sodium chloride were mixed in a 10 g Farinograph mixing bowl for 1 minute either with or without enzymes. Subsequently water (500 Brabender units) was added and mixed for 5 minutes at 30° C. After mixing the dough was placed at 32° C. for 1 hour, and then frozen and freeze dried prior to further analysis.
(§2) 10 g of fully proofed dough was immediately frozen and freeze dried. The freeze-dried dough was milled in a coffee mill and passed through an 800 micron screen. 1.5 g freeze-dried dough was scaled in a 15 ml centrifuge tube with screw top lid. 7.5 ml water saturated butanol (WSB) was added. The centrifuge tube was placed in a boiling water bath for 10 minutes. The tubes were placed in a Rotamix and rotated at 45 rpm for 20 minutes at ambient temperature and then placed in a boiling water bath again for a further 10 minutes prior to being Rotated on the Rotamix for a further 30 minutes at ambient temperature. The tubes were centrifuged at 3500 g for 5 minutes. 5 ml supernatant was transferred into a vial and the WSB was evaporated to dryness under a steam of nitrogen.
The free fatty acids in the extract were analysed as Cu-salts in isooctane measured at 715 nm and quantified according to a calibration curve based on oleic acid (Kwon D. Y. and Rhee J. S. (1986), A simple and rapid Colourimetric Method for
In the first series of dough experiments purified cowpea LAH was tested in 10 g dough in different concentrations in order to test the activity of the enzyme in dough and in order to find a suitable dosage for baking experiments. The activity of the enzyme was measured by analysing the level of free fatty acid in dough.

[2] = Model dough, HPLC analysis of polar lipids in dough (cowpea LAH); format: biochemical, wheat
Method: as §1, §2
(§3) Determination of Free Fatty Acids for Lipase Assay, JAOCS 63:89). Determination of Glycolipids and Phospholipids by HPLC.
(§4) The calibration curve for PC was used to calculate the amounts of the glycolipids and phospholipids.
Lipids extracted from the dough were further analysed by HPLC in order to study the effect on polar lipids in the dough.

[3] = Minibread dough, free fatty acid analysis; format: biochemical, wheat
Method: as §2
The free fatty acids in the extract were analysed as Cu-salts in isooctane measured at 715 nm and quantified according to a calibration curve based on oleic acid (Kwon D. Y. and Rhee J. S. (1986), A simple and rapid Colourimetric Method for […]

[4] = Minibread dough, GLC analysis of non-polar dough lipids; format: biochemical, wheat
Method: as §2
Perkin Elmer 8420 Capillary Gas Chromatography equipped with WCOT fused silica column 12.5 m×0.25 mm ID×0.1 μm 5% phenyl-methyl-silicone (CP Sil 8 CB from Crompack). • Carrier: Helium. • Injection: 1.5 μl with split. • Detector: FID. 385° C.
Sample preparation: 50 mg wheat lipid was dissolved in 12 ml heptane: pyridine 2:1 containing an internal standard heptadecane, 2 mg/ml. 500 μl of the sample was transferred to a crimp vial. 100 μl MSTFA (N-Methyl-N-trimethylsilyltrifluoracetamid) was added and the reaction incubated for 15 minutes at 90° C. Calculation: Response factors for mono-di-triglycerides and free fatty acid were determined from reference mixtures of these components. Based on these response factors the mono-di-triglycerides and free fatty acids in wheat lipids were calculated.

[5] = Minibread dough, HPLC analysis of galactolipids; format: biochemical, wheat
Method: as §2, §3, §4

[6] = Assay for enzyme activity with pNP-Caprate; format: biochemical; details: desalted/concentrated sample of purification step 5 (used for baking trials)
Method: Preparation of substrate for enzymatic assay: The substrate, pNP-Caprate (C10), was dissolved in ethanol and diluted in 100 mM Na-Phosphate-buffer (pH 6.3) to a final concentration of 0.1 mg,/ml substrate and 30% ethanol respectively, and kept at room temperature.
Assay method: The enzyme assay mixture contained 30 μl sample/blank and 250 μl substrate. The mixture was incubated at 35° C. for 30 minutes (420 nm) whilst simultaneously running an ELISA-reader (420 nm) kinetic program. The Vmax value was used for calculation of enzyme activity (U/ml). Vmax was converted to μmol from a standard curve for solutions of pNP measured under the same conditions as the sample. The enzyme activity is defined as the amount of enzyme which produce 1 μmol of pNP per min. at 35° C.

[7] = Cowpea LAH 0.0048 Units/kg flour
[8] = Cowpea LAH 0.024 Units/kg flour
[9] = Cowpea LAH % 0.1195, minibread dough
[10] = Cowpea LAH % 0.239, minibread dough
[11] = Cowpea LAH % 0.478, minibread dough
[12] = Cowpea LAH % 0.956, minibread dough
[13] = Test no. 2, Cowpea LAH 0.05 % in dough, fully proofed minibread dough
[14] = Test no. 3, Cowpea LAH 0.15 % in dough, fully proofed minibread dough
[15] = Test no. 3, Cowpea LAH 0.357 Units/kg flour, no DGDG added, minibread dough
[16] = Test no. 4, Cowpea LAH 0.357 Units/kg flour + DGDG 55% pure 0.2 %, minibread dough

**Q.** Which results are given for “Cowpea LAH: lipolytic acyl hydrolase (E.C. 3.1.1.26) isolated from cowpea (Vigna unguiculata) leaves; hydrolyses glycolipid and phospholipid, not triglyceride”?
**A.** Fatty acid in dough [1, 7]: 1.66 ‰; Fatty acid in dough [1, 8]: 1.78 ‰; Fatty acid in dough ([1]; Cowpea LAH 0.12 Units/kg flour): 2.13 ‰; Fatty acid in dough ([1]; Cowpea LAH 0.6 Units/kg flour): 2.55 ‰; Fatty acid in dough ([1]; Cowpea LAH 3 Units/kg flour): 3.44 ‰; DGDG [2, 7]: 2.22 ‰; DGMG [2, 7]: 0.20 ‰; LPC [2, 7]: 1.50 ‰; PC [2, 7]: 0.52 ‰; DGDG [2, 8]: 2.12 ‰; DGMG [2, 8]: 0.23 ‰; LPC [2, 8]: 1.51 ‰; PC [2, 8]: 0.48 ‰; DGDG ([2]; Cowpea LAH 0.12 Units/kg flour): 1.84 ‰; DGMG ([2]; Cowpea LAH 0.12 Units/kg flour): 0.26 ‰; LPC ([2]; Cowpea LAH 0.12 Units/kg flour): 1.37 ‰; PC ([2]; Cowpea LAH 0.12 Units/kg flour): 0.35 ‰; DGDG ([2]; Cowpea LAH 0.6 Units/kg flour): 1.08 ‰; DGMG ([2]; Cowpea LAH 0.6 Units/kg flour): 0.30 ‰; LPC ([2]; Cowpea LAH 0.6 Units/kg flour): 1.30 ‰; PC ([2]; Cowpea LAH 0.6 Units/kg flour): 0.29 ‰; DGDG ([2]; Cowpea LAH 3.0 Units/kg flour): 0.30 ‰; DGMG ([2]; Cowpea LAH 3.0 Units/kg flour): 0.11 ‰; LPC ([2]; Cowpea LAH 3.0 Units/kg flour): 1.19 ‰; PC ([2]; Cowpea LAH 3.0 Units/kg flour): 0.00 ‰; Free fatty acid in dough ([3]; Cowpea LAH 0.1195 Units/kg): 2.72 ‰; Free fatty acid in dough ([3]; Cowpea LAH 0.239 Units/kg): 2.81 ‰; Free fatty acid in dough ([3]; Cowpea LAH 0.478 Units/kg): 3.07 ‰; Free fatty acid in dough ([3]; Cowpea LAH 0.956 Units/kg): 3.28 ‰; Free fatty acid ([3]; Test no 3, Cowpea LAH 0.357 Units/kg flour, no DGDG): 3.07 ‰; Free fatty acid ([3]; Test no 4, Cowpea LAH 0.357 Units/kg flour + DGDG 55% pure 0.2 %): 3.00 ‰; Free fatty acid ([3]; Test no 10, Cowpea LAH 1.07 Units/kg flour, no DGDG): 3.32 ‰; Free fatty acid ([3]; Test no 11, Cowpea LAH 1.07 Units/kg flour + DGDG 55% pure 0.1 %): 3.42 ‰; Free fatty acid ([3]; Test no 12, Cowpea LAH 1.07 Units/kg flour + DGDG 55% pure 0.2 %): 3.64 ‰; Free fatty acid ([3]; Test no 13, Cowpea LAH 1.07 Units/kg flour + DGDG 55% pure 0.4 %): 3.92 ‰; Free fatty acid ([3]; Test no 15, Cowpea LAH 1.07 Units/kg flour + Soy oil 2 %): 3.35 ‰; Free fatty acid ([3]; Test no 16, Cowpea LAH 2.14 Units/kg flour + Soy oil 2 %): 3.75 ‰; Fatty acid in dough ([3]; Test no. 2, Cowpea LAH 0.05 % in dough): 2.75 ‰; Fatty acid in dough ([3]; Test no. 3, Cowpea LAH 0.15 % in dough): 2.96 ‰; Diglyceride [4, 9]: 0.96 ‰; Monoglyceride [4, 9]: 0.40 ‰; Triglyceride [4, 9]: 5.04 ‰; Diglyceride [4, 10]: 1.23 ‰; Monoglyceride [4, 10]: 0.41 ‰; Triglyceride [4, 10]: 5.21 ‰; Diglyceride [4, 11]: 0.90 ‰; Monoglyceride [4, 11]: 0.43 ‰; Triglyceride [4, 11]: 5.09 ‰; Diglyceride [4, 12]: 1.01 ‰; Monoglyceride [4, 12]: 0.41 ‰; Triglyceride [4, 12]: 5.23 ‰; Diglyceride [4, 13]: 0.95 ‰; Monoglyceride [4, 13]: 0.43 ‰; Triglyceride [4, 13]: 4.98 ‰; Diglyceride [4, 14]: 0.96 ‰; Monoglyceride [4, 14]: 0.43 ‰; Triglyceride [4, 14]: 5.11 ‰; Triglyceride [4, 15]: not detected; Triglyceride [4, 16]: 5.82 ‰; DGDG [5, 9]: 2.08 ‰; DGMG [5, 9]: 0.23 ‰; DGDG [5, 10]: 2.01 ‰; DGMG [5, 10]: 0.20 ‰; DGDG [5, 11]: 1.89 ‰; DGMG [5, 11]: 0.24 ‰; DGDG [5, 12]: 1.60 ‰; DGMG [5, 12]: 0.20 ‰; DGDG [5, 13]: 2.03 ‰; DGMG [5, 13]: 0.27 ‰; DGDG [5, 14]: 1.92 ‰; DGMG [5, 14]: 0.28 ‰; DGDG [5, 15]: 1.93 ‰; DGMG [5, 15]: 0.23 ‰; DGDG [5, 16]: 2.4 ‰; DGMG [5, 16]: 0.25 ‰; Vmax [6]: 5.6 mOD/min.; enzyme activity [6]: 0.010 U/ml
